From paper PMC8071274 (International Journal of Molecular Sciences, 2021) come the findings set out here.

This assay relates to differentiated HL-60 cells. It counts as cell-based, human. The following applies: 72 h. On the procedure:
HEK-293 cells (American Type Culture Collection, Manassas, VA, USA) were maintained in DMEM (Thermo Fisher Scientific, Waltham, MA, USA) containing 10% FBS (Thermo Fisher Scientific) in a humidified atmosphere at 5% CO2 and 37 °C. Human acute leukemia-derived HL-60 cells (RIKEN Cell Bank, Ibaraki, Japan) were cultured in RPMI-1640 medium (Thermo Fisher Scientific) containing 10% FBS in a humidified atmosphere at 5% CO2 and 37 °C. HL-60 cells were treated with 500 μM dibutyryl-cAMP (Sigma-Aldrich, St. Louis, MO, USA) for 72 h to differentiate the cells into neutrophilic/granulocytic cells as described elsewhere. The ability of MCT-2-related peptides to activate HL-60 cells differentiated into neutrophilic/granulocytic cells was evaluated by stimulation of β-hexosaminidase secretion from the cells. Briefly, differentiated HL-60 cells were washed 3 times with ice-cold HEPES-buffered Hank’s solution (HBHS; 10 mM HEPES, 136.9 mM NaCl, 5.4 mM KCl, 1.2 mM CaCl2, 0.44 mM KH2PO4, 0.49 mM MgCl2, 0.41 mM MgSO4, 0.34 mM Na2HPO4, 5.5 mM glucose, 4.2 mM NaHCO3, and 0.1% BSA, pH 7.4). The cells were resuspended in HBHS at a density of 5.6 × 10^6 cells/mL, and DNase I (Sigma-Aldrich) and cytochalasin B (Sigma-Aldrich) were each added at a final concentration of 5 μg/mL. The cell suspension in each tube (5.0 × 10^5 cells/90 μL) was preincubated at 37 °C for 10 min and stimulated with 10 μL synthetic peptide solution at 37 °C for 10 min. The inhibitory effects of inhibitors against FPR1 [CysH (Sigma-Aldrich)] and FPR2 [PBP10 (Tocris Bioscience, Bristol, UK)] on β-hexosaminidase release induced by MCT-2 and its derivatives were also evaluated in the differentiated HL-60 cells; each cell suspension prepared as above (90 μL) was transferred to a tube (5.0 × 10^5 cells/tube) with 5 μL inhibitor solution for FPR1 (CysH) or FPR2 (PBP10). Each tube was then preincubated at 37 °C for 10 min and stimulated with 5 μL synthetic peptide solution at 37 °C for 10 min. After stimulation, 200 μL ice-cold reaction quenching buffer (25 mM Tris, 123 mM NaCl, and 2.7 mM KCl, pH 7.4) was added to each cell suspension to stop the reaction. Thereafter, these tubes were centrifuged at 4 °C and 2300× g for 1 min, and each supernatant was transferred into a new tube. β-Hexosaminidase activity in the supernatant was measured as described previously. Briefly, 90 μL supernatant was transferred to each well of a 96-well microtiter plate, and 60 μL of a substrate solution for β-hexosaminidase [10 mM p-nitrophenyl N-acetyl-β-D-glucosaminide (Sigma-Aldrich), 40 mM citrate, and 70 mM NaHPO4, pH 4.5] was added to initiate the enzyme reaction. After incubation of the plate at 37 °C for 1 h, 100 μL of 400 mM glycine (pH 10.7) was added to stop the reaction. The absorbance at 415 nm for the resulting p-nitrophenol and at 490 nm for the reference was measured using a microtiter plate reader (Viento XS; BioTek Instruments, Winooski, VT, USA). The ability of each peptide to induce β-hexosaminidase release was expressed as a percentage of enzyme secretion promoted by 10 μM MCT-2(1–15) that induced the maximum response for the elucidation of full or partial agonists to the activity of MCT-2(1–15) (Figure 2 and Figure 4, Table 2) or a percentage of the total enzyme activity, which was the enzyme activity released after disruption of the cells with 0.05% Triton X-100 (Figure 3).

Where a SMILES comes first, the peptide text is derived from it. Where no end group is shown, it is not given here. The star is where a group is joined. For = O=C*

Broadly, the EC50 is the concentration needed to bring the measured effect to its halfway point. `CC[C@H](C)[C@H](NC(=O)[C@H](CC(C)C)NC(=O)[C@H](CCCCN)NC(=O)[C@H](CCSC)NC(=O)[C@H](CC(C)C)NC(=O)[C@@H]1CCCN1C(=O)[C@H](CC(N)=O)NC(=O)[C@@H](NC(=O)[C@H](CCCCN)NC(=O)[C@H](CCCNC(=N)N)NC(=O)[C@H](CCSC)NC(=O)[C@H](C)NC(=O)[C@@H](NC(=O)[C@H](CCSC)NC=O)[C@@H](C)O)[C@@H](C)CC)C(=O)N[C@@H](CC(N)=O)C(=O)O` [[Ala^3]MCT-2] (For-MTAMRKINPLMKLIN-OH) returned an EC50 of 0.0163 ± 0.00029 µM.

Compound `CC[C@H](C)[C@H](NC(=O)[C@H](CC(C)C)NC(=O)[C@H](CCCCN)NC(=O)[C@H](CCSC)NC(=O)[C@H](CC(C)C)NC(=O)[C@@H]1CCCN1C(=O)[C@H](CC(N)=O)NC(=O)[C@@H](NC(=O)[C@H](CCCCN)NC(=O)[C@H](CCCNC(=N)N)NC(=O)[C@H](C)NC(=O)[C@@H]1CCCN1C(=O)[C@@H](NC(=O)[C@H](CCSC)NC=O)[C@@H](C)O)[C@@H](C)CC)C(=O)N[C@@H](CC(N)=O)C(=O)O` [[Ala^4]MCT-2] (For-MTPARKINPLMKLIN-OH) gave an EC50 of 0.068 ± 0.00265 µM. Against the preceding compound, the EC50 is about 4.2-fold higher.

Take `CC[C@H](C)[C@H](NC(=O)[C@H](CC(C)C)NC(=O)[C@H](CCCCN)NC(=O)[C@H](CCSC)NC(=O)[C@H](CC(C)C)NC(=O)[C@@H]1CCCN1C(=O)[C@H](CC(N)=O)NC(=O)[C@@H](NC(=O)[C@H](CCCCN)NC(=O)[C@H](C)NC(=O)[C@H](CCSC)NC(=O)[C@@H]1CCCN1C(=O)[C@@H](NC(=O)[C@H](CCSC)NC=O)[C@@H](C)O)[C@@H](C)CC)C(=O)N[C@@H](CC(N)=O)C(=O)O` [[Ala^5]MCT-2] (For-MTPMAKINPLMKLIN-OH): the EC50 is 0.0613 ± 0.00058 µM.

`CC[C@H](C)[C@H](NC(=O)[C@H](C)NC(=O)[C@H](CCCNC(=N)N)NC(=O)[C@H](CCSC)NC(=O)[C@@H]1CCCN1C(=O)[C@@H](NC(=O)[C@H](CCSC)NC=O)[C@@H](C)O)C(=O)N[C@@H](CC(N)=O)C(=O)N1CCC[C@H]1C(=O)N[C@@H](CC(C)C)C(=O)N[C@@H](CCSC)C(=O)N[C@@H](CCCCN)C(=O)N[C@@H](CC(C)C)C(=O)N[C@H](C(=O)N[C@@H](CC(N)=O)C(=O)O)[C@@H](C)CC` [[Ala^6]MCT-2] (For-MTPMRAINPLMKLIN-OH) yielded an EC50 of 0.064 ± 0.003 µM.

For `CC[C@H](C)[C@H](NC(=O)[C@H](CC(C)C)NC(=O)[C@H](CCCCN)NC(=O)[C@H](CCSC)NC(=O)[C@H](CC(C)C)NC(=O)[C@@H]1CCCN1C(=O)[C@H](CC(N)=O)NC(=O)[C@H](C)NC(=O)[C@H](CCCCN)NC(=O)[C@H](CCCNC(=N)N)NC(=O)[C@H](CCSC)NC(=O)[C@@H]1CCCN1C(=O)[C@@H](NC(=O)[C@H](CCSC)NC=O)[C@@H](C)O)C(=O)N[C@@H](CC(N)=O)C(=O)O` [[Ala^7]MCT-2] (For-MTPMRKANPLMKLIN-OH), the EC50 stood at 0.0947 ± 0.00321 µM.

`CC[C@H](C)[C@H](NC(=O)[C@H](CCCCN)NC(=O)[C@H](CCCNC(=N)N)NC(=O)[C@H](CCSC)NC(=O)[C@@H]1CCCN1C(=O)[C@@H](NC(=O)[C@H](CCSC)NC=O)[C@@H](C)O)C(=O)N[C@@H](C)C(=O)N1CCC[C@H]1C(=O)N[C@@H](CC(C)C)C(=O)N[C@@H](CCSC)C(=O)N[C@@H](CCCCN)C(=O)N[C@@H](CC(C)C)C(=O)N[C@H](C(=O)N[C@@H](CC(N)=O)C(=O)O)[C@@H](C)CC` [[Ala^8]MCT-2] (For-MTPMRKIAPLMKLIN-OH) displayed an EC50 of 0.031 ± 0.00397 µM.

In turn, `CC[C@H](C)[C@H](NC(=O)[C@H](CC(C)C)NC(=O)[C@H](CCCCN)NC(=O)[C@H](CCSC)NC(=O)[C@H](C)NC(=O)[C@@H]1CCCN1C(=O)[C@H](CC(N)=O)NC(=O)[C@@H](NC(=O)[C@H](CCCCN)NC(=O)[C@H](CCCNC(=N)N)NC(=O)[C@H](CCSC)NC(=O)[C@@H]1CCCN1C(=O)[C@@H](NC(=O)[C@H](CCSC)NC=O)[C@@H](C)O)[C@@H](C)CC)C(=O)N[C@@H](CC(N)=O)C(=O)O` [[Ala^10]MCT-2] (For-MTPMRKINPAMKLIN-OH) returned an EC50 of 0.073 ± 0.0133 µM.

With `CC[C@H](C)[C@H](NC(=O)[C@H](CC(C)C)NC(=O)[C@H](CCCCN)NC(=O)[C@H](C)NC(=O)[C@H](CC(C)C)NC(=O)[C@@H]1CCCN1C(=O)[C@H](CC(N)=O)NC(=O)[C@@H](NC(=O)[C@H](CCCCN)NC(=O)[C@H](CCCNC(=N)N)NC(=O)[C@H](CCSC)NC(=O)[C@@H]1CCCN1C(=O)[C@@H](NC(=O)[C@H](CCSC)NC=O)[C@@H](C)O)[C@@H](C)CC)C(=O)N[C@@H](CC(N)=O)C(=O)O` [[Ala^11]MCT-2] (For-MTPMRKINPLAKLIN-OH), the 50% effective concentration (EC50) came to 0.0367 ± 0.011 µM.

Consider `CC[C@H](C)[C@H](NC(=O)[C@H](CC(C)C)NC(=O)[C@H](C)NC(=O)[C@H](CCSC)NC(=O)[C@H](CC(C)C)NC(=O)[C@@H]1CCCN1C(=O)[C@H](CC(N)=O)NC(=O)[C@@H](NC(=O)[C@H](CCCCN)NC(=O)[C@H](CCCNC(=N)N)NC(=O)[C@H](CCSC)NC(=O)[C@@H]1CCCN1C(=O)[C@@H](NC(=O)[C@H](CCSC)NC=O)[C@@H](C)O)[C@@H](C)CC)C(=O)N[C@@H](CC(N)=O)C(=O)O` [[Ala^12]MCT-2] (For-MTPMRKINPLMALIN-OH), for which the EC50 is 0.0123 ± 0.00029 µM.

As to `CC[C@H](C)[C@H](NC(=O)[C@H](C)NC(=O)[C@H](CCCCN)NC(=O)[C@H](CCSC)NC(=O)[C@H](CC(C)C)NC(=O)[C@@H]1CCCN1C(=O)[C@H](CC(N)=O)NC(=O)[C@@H](NC(=O)[C@H](CCCCN)NC(=O)[C@H](CCCNC(=N)N)NC(=O)[C@H](CCSC)NC(=O)[C@@H]1CCCN1C(=O)[C@@H](NC(=O)[C@H](CCSC)NC=O)[C@@H](C)O)[C@@H](C)CC)C(=O)N[C@@H](CC(N)=O)C(=O)O` [[Ala^13]MCT-2] (For-MTPMRKINPLMKAIN-OH), a half-maximal response (EC50) required 0.0837 ± 0.00354 µM.

With `CC[C@H](C)[C@H](NC(=O)[C@H](CCCCN)NC(=O)[C@H](CCCNC(=N)N)NC(=O)[C@H](CCSC)NC(=O)[C@@H]1CCCN1C(=O)[C@@H](NC(=O)[C@H](CCSC)NC=O)[C@@H](C)O)C(=O)N[C@@H](CC(N)=O)C(=O)N1CCC[C@H]1C(=O)N[C@@H](CC(C)C)C(=O)N[C@@H](CCSC)C(=O)N[C@@H](CCCCN)C(=O)N[C@@H](CC(C)C)C(=O)N[C@@H](C)C(=O)N[C@@H](CC(N)=O)C(=O)O` [[Ala^14]MCT-2] (For-MTPMRKINPLMKLAN-OH), it took 0.0767 ± 0.0119 µM to reach a half-maximal effect (EC50).

In turn, `CC[C@H](C)[C@H](NC(=O)[C@H](CC(C)C)NC(=O)[C@H](CCCCN)NC(=O)[C@H](CCSC)NC(=O)[C@H](CC(C)C)NC(=O)[C@@H]1CCCN1C(=O)[C@H](CC(N)=O)NC(=O)[C@@H](NC(=O)[C@H](CCCCN)NC(=O)[C@H](CCCNC(=N)N)NC(=O)[C@H](CCSC)NC(=O)[C@@H]1CCCN1C(=O)[C@@H](NC(=O)[C@H](CCSC)NC=O)[C@@H](C)O)[C@@H](C)CC)C(=O)N[C@@H](C)C(=O)O` [[Ala^15]MCT-2] (For-MTPMRKINPLMKLIA-OH) came in with an EC50 of 0.0293 ± 0.00149 µM. Compared with the last compound, the EC50 is about 2.6-fold lower.

As for MTPMRKINPLMKLIN [Des-N-formyl MCT-2], the EC50 was above 1000 µM.
